Numbered stars: 1 amine (or outer) side, 2 acyl side, 3 side chain; on linkers, the order of the positions; unused ones are H or OH. Bridge positions count the residues as written; N and C are the ends. Square brackets hold non-standard residues; d marks the D form. Peptide text beside a SMILES is read from it. * marks the point of attachment. TATA = O=C(CC[*:1])N1CN(C(=O)CC[*:2])CN(C(=O)CC[*:3])C1; X1 = O=C(O)CN1CCN(CC(=O)O)CCN([C@H](CCC(=O)*)C(=O)O)CC1; 1Nal = N[C@@H](Cc1cccc2ccccc12)C(=O)O; Hyp = O=C(O)[C@@H]1C[C@@H](O)CN1; hArg = N=C(N)NCCCC[C@H](N)C(=O)O; hSer = N[C@@H](CCO)C(=O)O; Nle = CCCC[C@H](N)C(=O)O

5 compounds from PMC12557367, ““Precision on Two Wheels”–Structural Refinement of ^64Cu- and ^68Ga-Labeled Bicyclic Peptides Targeting Nectin‑4 for Improved Tumor Imaging: From Preclinical Development to First-in-Human Application” (Journal of Medicinal Chemistry, 2025) can be followed below.

Data set [1] addresses T1, recombinant human nectin-4 (Homo sapiens, UniProt Q96NY8).
T1 construct: close to the value determined for the complete extracellular domain of nectin-4 (0.94 nM); purchased R&D Systems 2659-N4
T1 sequence (Q96NY8 32-349 limits assumed): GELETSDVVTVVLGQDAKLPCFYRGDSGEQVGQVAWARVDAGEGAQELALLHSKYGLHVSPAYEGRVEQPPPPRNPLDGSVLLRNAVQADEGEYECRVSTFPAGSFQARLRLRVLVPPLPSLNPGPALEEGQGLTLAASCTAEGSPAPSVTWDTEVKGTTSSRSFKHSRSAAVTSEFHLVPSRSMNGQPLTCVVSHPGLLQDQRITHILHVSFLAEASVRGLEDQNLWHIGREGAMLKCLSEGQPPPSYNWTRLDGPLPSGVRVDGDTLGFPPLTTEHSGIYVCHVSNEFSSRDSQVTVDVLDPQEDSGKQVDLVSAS
Nature of the data set: FA-based competitive binding assay with probe 1a. As to conditions: competitive binding curve, variable slope. The procedure:
For the competitive binding assay, a constant concentration of probe 1a (1 nM) and of nectin-4 (20 nM) was used, and the concentration of the competitors was varied over at least 3 orders of magnitude. […] Analysis of the curves by nonlinear regression according to dose–response inhibition with variable slope, as implemented in GraphPad Prism (see Experimental section), provided the IC50 value for displacing the probe from nectin-4.
All measurements were conducted at 37 °C over 1200 s (interval of 37 s) using a Cytation 5 multimode microplate reader (BioTek Instruments, Software Gen 5) and black 96-well microplates (BRANDplates with F-bottom wells). Experiments were conducted at an excitation wavelength of 540 nm and an emission wavelength of 620 nm. The FA (r) was calculated by Gen 5 software from the measured parallel and perpendicular fluorescence intensities (I ∥ and I ⊥, respectively) according to eq using a G factor of 0.87 (preset value). r=I∥−G×I⊥/I∥+2G×I⊥ 1
All further data analyses were conducted with GraphPad Prism (version 10.4.1, GraphPad Software, San Diego, CA, USA). The assay mixture (100 μL) contained an aqueous solution (99 μL) and DMSO (1%, v/v, 1 μL).
For the competitive binding assay, fixed concentrations of probe 1a (1 nM) and recombinant human nectin-4 (20 nM) and 10 concentrations of nonlabeled peptide (e.g., […] prepared as serial 1:1 dilution) were used (two separate experiments, each performed in duplicate). The corresponding stock solutions of 1a (2.5 nM) and nectin-4 (50 nM) were prepared in HEPES buffer, while the stock solutions of the nonlabeled peptides were prepared in 5% DMSO/HEPES buffer. nectin-4 (40 μL) and 1a (40 μL) were added to the wells, and the competition was started by the addition of the nonlabeled peptides (20 μL). The FA values were averaged over the time period of 1200 s, and plots of FA = f([peptide]) were analyzed by nonlinear regression according to the model “[inhibitor] vs. response – Variable slope (four parameters)” as implemented in GraphPad Prism. […] Therefore, the lower FA plateau was constrained to the FA value of probe 1a in the absence of nectin-4 and the competitor, which was recorded in each experiment.

For data set [2], the system named is HT-1376-derived tumor xenograft model. Nature of the data set: Small animal PET/CT imaging. More on the design: species or system mice. The note with it: mouse, in vivo. The procedure: All animal experiments were performed following the protocols evaluated and approved by the Landesdirektion Sachsen, Referat 25 – Veterinärwesen, Lebensmittelüberwachung and Pharmazie (09105 Chemnitz, Germany, ethics approval number: 25-5131/562/52). HT-1376- and 5637-derived tumor xenograft models were established in NMRI nude mice (Rj: NMRI-Foxn1nu/nu, Charles River Laboratories, Sulzfeld, Germany) by subcutaneous injection of 5 × 10^6 cells in 100 μL of PBS containing 50% (v/v) Matrigel (Corning Life Sciences, Amsterdam, The Netherlands).
When the tumor volume reached 200 mm^3, PET experiments with radiotracers were performed. Radiolabeling of the ligands was performed as described previously with an apparent molar activity of 25 MBq/nmol. The radioligand stock solution (pH 6.5 – 7.5) was diluted in 0.9% NaCl, and 200 μL containing ∼9 MBq ([…]) was injected per mouse intravenously into a lateral tail vein. For blocking of target-specific radioligand binding, 75 nmol of blocking substance (1d) was administered simultaneously with the radioligand. Coincidences were recorded continuously in a 2 h PET-scan starting with the injection. Additionally, a CT scan was performed for anatomical referencing and attenuation correction. PET/CT imaging, reconstruction, and tissue delineation were carried out as described previously.

`CSCC[C@@H]1NC(=O)[C@@H]2CSCCC(=O)N3CN(CN(C3)C(=O)CCSC[C@H](N)C(=O)N3CCC[C@H]3C(=O)N[C@@H](Cc3cccc4ccccc34)C(=O)N[C@H](CC(=O)O)C(=O)N2)C(=O)CCSC[C@@H](C(N)=O)NC(=O)[C@H](Cc2c[nH]c3ccccc23)NC(=O)[C@@H]2C[C@@H](O)CN2C(=O)[C@@H]2CCCN2C(=O)[C@H]([C@@H](C)O)NC(=O)[C@H](CO)NC(=O)[C@H](Cc2c[nH]c3ccccc23)NC(=O)[C@H](CC(=O)O)NC(=O)[C@H](CCCCNC(=N)N)NC1=O` [1c]: the Hill coefficient n in data set [1] is on record as 2.12.
For `CSCC[C@@H]1NC(=O)[C@@H]2CSCCC(=O)N3CN(CN(C3)C(=O)CCSC[C@H](NC(C)=O)C(=O)N3CCC[C@H]3C(=O)N[C@@H](Cc3cccc4ccccc34)C(=O)N[C@H](CC(=O)O)C(=O)N2)C(=O)CCSC[C@@H](C(N)=O)NC(=O)[C@H](Cc2c[nH]c3ccccc23)NC(=O)[C@@H]2C[C@@H](O)CN2C(=O)[C@@H]2CCCN2C(=O)[C@H]([C@@H](C)O)NC(=O)[C@H](CO)NC(=O)[C@H](Cc2c[nH]c3ccccc23)NC(=O)[C@H](CC(=O)O)NC(=O)[C@H](CCCCNC(=N)N)NC1=O` [1d, reference compound], the Hill coefficient n in data set [1] was 2.37.
With `CCCC[C@@H]1NC(=O)[C@@H]2CSCCC(=O)N3CN(CN(C3)C(=O)CCSC[C@H](NC(C)=O)C(=O)N3CCC[C@H]3C(=O)N[C@@H](Cc3cccc4ccccc34)C(=O)N[C@H](CC(=O)O)C(=O)N2)C(=O)CCSC[C@@H](C(N)=O)NC(=O)[C@H](Cc2c[nH]c3ccccc23)NC(=O)[C@@H]2C[C@@H](O)CN2C(=O)[C@@H]2CCCN2C(=O)[C@H]([C@@H](C)O)NC(=O)[C@H](CO)NC(=O)[C@H](Cc2c[nH]c3ccccc23)NC(=O)[C@H](CC(=O)O)NC(=O)[C@H](CCCCNC(=N)N)NC1=O` [3b] (Ac-CP[1Nal][dD]C[Nle][hArg]DWSTP[Hyp]WC-NH2; linker 1-5-15 via TATA), the Hill coefficient n in data set [1] is on record as 1.80.
As to `CSCC[C@@H]1NC(=O)[C@@H]2CSCCC(=O)N3CN(CN(C3)C(=O)CCSC[C@H](NC(=O)CC[C@H](C(=O)O)N3CCN(CC(=O)O)CCN(CC(=O)O)CC3)C(=O)N3CCC[C@H]3C(=O)N[C@@H](Cc3cccc4ccccc34)C(=O)N[C@H](CC(=O)O)C(=O)N2)C(=O)CCSC[C@@H](C(N)=O)NC(=O)[C@H](Cc2c[nH]c3ccccc23)NC(=O)[C@@H]2C[C@@H](O)CN2C(=O)[C@@H]2CCCN2C(=O)[C@H]([C@@H](C)O)NC(=O)[C@H](CO)NC(=O)[C@H](Cc2c[nH]c3ccccc23)NC(=O)[C@H](CC(=O)O)NC(=O)[C@H](CCCCNC(=N)N)NC1=O` [[^68Ga]Ga-1e] [metal not drawn], in data set [2], the “Blood half life fast” value was 1.51 ± 0.31 min, the “Blood half life slow” value is 42.24 ± 4.20 min, the “Percent fast [%]” value turned out to be 80.73 ±3.35% and the “body retention at 2 h p.i.” value came out at 65%. In data set [2], the “time of highest tumor uptake” value came out at 8.5 min.
For the compound `COCC[C@@H]1NC(=O)[C@@H]2CSCCC(=O)N3CN(CN(C3)C(=O)CCSC[C@H](NC(=O)CC[C@H](C(=O)O)N3CCN(CC(=O)O)CCN(CC(=O)O)CC3)C(=O)N3CCC[C@H]3C(=O)N[C@@H](Cc3cccc4ccccc34)C(=O)N[C@H](CC(=O)O)C(=O)N2)C(=O)CCSC[C@@H](C(N)=O)NC(=O)[C@H](Cc2c[nH]c3ccccc23)NC(=O)[C@@H]2C[C@@H](O)CN2C(=O)[C@@H]2CCCN2C(=O)[C@H]([C@@H](C)O)NC(=O)[C@H](CO)NC(=O)[C@H](Cc2c[nH]c3ccccc23)NC(=O)[C@H](CC(=O)O)NC(=O)[C@H](CCCCNC(=N)N)NC1=O` [[^68Ga]Ga-4] [metal not drawn] (X1-CP[1Nal][dD]C[hSer](Me)[hArg]DWSTP[Hyp]WC-NH2; linker 1-5-15 via TATA), in data set [2], the “Percent fast [%]” value was determined as 78.47 ±3.76% and the “time of highest tumor uptake” value is recorded as 8.5 min.
